Experimental findings from patent US10787454B2, “Imidazo[1,5-a]pyrimidinyl carboxamide compounds and their use in the treatment of medical disorders” (BIAL-BioTech Investments, Inc., priority 2016, dated 2020) are described below.

Data set [1] concerns the target T1, glucocerebrosidase (Gcase) (Homo sapiens, UniProt P04062).
T1 sequence (P04062 40-536): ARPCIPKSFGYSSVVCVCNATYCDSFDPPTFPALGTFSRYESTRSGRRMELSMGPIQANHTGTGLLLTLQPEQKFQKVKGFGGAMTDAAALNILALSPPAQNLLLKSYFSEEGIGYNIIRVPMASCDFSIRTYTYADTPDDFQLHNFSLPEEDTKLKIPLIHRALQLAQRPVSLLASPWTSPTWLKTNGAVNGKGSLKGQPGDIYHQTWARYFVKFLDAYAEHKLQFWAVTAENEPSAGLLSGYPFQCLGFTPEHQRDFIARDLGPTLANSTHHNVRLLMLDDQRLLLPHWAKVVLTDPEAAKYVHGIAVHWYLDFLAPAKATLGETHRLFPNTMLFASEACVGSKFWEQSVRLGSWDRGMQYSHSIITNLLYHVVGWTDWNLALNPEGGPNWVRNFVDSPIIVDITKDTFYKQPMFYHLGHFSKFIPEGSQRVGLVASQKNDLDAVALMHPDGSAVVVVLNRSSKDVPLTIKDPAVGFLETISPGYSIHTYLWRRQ
The data set can be described thus: Glucocerebrosidase (Gcase) activation assay, 4-methylumbelliferyl-beta-D-glucopyranoside substrate, with saposin C. The data set is classed as biochemical. Particulars: for activation at 0.1 µM: read-out: Percent Gcase Activation, 0.1 μM Test Compound; for activation at 1 µM / Percent Gcase Activation, 1 μM Test Compound: test compound at 1.0 μM; for activation at 1 µM: read-out: Percent Gcase Activation, 1 μM Test Compound. As for the experimental part:
The ability of exemplary compounds to activate glucocerebrosidase (Gcase) was measured.
A 484 μL aliquot of a 1.0 mg/mL solution of phosphatidylserine (PS) (Sigma P7769) in chloroform was evaporated under a stream of nitrogen for 1 hour. The lipid film was dissolved over 4 minutes of vigorous vortexing in 40 mL of 176 mM K2HPO4/50 mM citric acid (pH 4.7) containing 7.5 μL of triton X-100, resulting in a mixed micellar preparation with a composition of 0.32 mM triton and 0.37 mol % PS. 4-Methylumbelliferyl-beta-D-glucopyranoside (ACROS-337025000) was dissolved in the micellar solution to a final concentration of 2 mM for use as the reaction substrate.
Test compounds were diluted to the desired concentrations with dimethylsulfoxide (DMSO) from 10 mM stocks, and 0.41 μL of the DMSO compound mixture was added to 100 μL of micellar solution containing 10 nM GCase and 100 nM saposin C (Enzo ALX-201-262-C050). Pre-incubation was allowed to occur for 30 minutes at room temperature, after which the reaction was initiated by combining 25 μL of substrate solution with 25 μL of compound/GCase/saposin mixture. The reaction proceeded for 15 minutes at room temperature and was stopped by adding 150 μL of 1M glycine, pH 12.5. The endpoint of the reaction was monitored by measuring fluorescence intensity (excitation: 365 nm; emission: 440 nm) on a SpectraMax i3 instrument (Molecular Devices). Test compounds were screened at 1.0 and 0.1 μM final concentration, and subsequent 8-point dose response curves were obtained using 3-fold dilutions from a maximum final concentration of 5 μM.

Data set [2] is described as follows: Compound solubility in water. The format is physicochemical.

In brackets after ≈: the same amount, converted by molar mass. Where only a bound is given, the exact number is not on record here.

Consider `Cc1cc(N)nc2c(C(=O)NC(c3ccc(F)cc3)C(F)(F)F)ncn12` (stereo not shown) [III-17], for which the activation at 0.1 µM in data set [1] (test compound at 0.1 μM) was more than 20%. For the same compound, the activation at 1 µM in data set [1] was more than 60%. This compound also displayed a solubility in data set [2] of 0.9 µg/mL (≈ 2.45 µM).

Consider `Cc1cc(C)n2cnc(C(=O)NC(C)C3CCCCC3)c2n1` (stereo not shown) [III-9], for which the “Percent Gcase Activation, 1 μM Test Compound” value in data set [1] is “+++ (Gcase activation greater than 60%)”.

Consider `Cc1cc(Oc2ccc(F)cc2)nc2c(C(=O)N[C@@H](C)C3CC3)ncn12` [III-77], for which the activation at 0.1 µM in data set [1] (test compound at 0.1 μM) was less than 10%. The activation at 1 µM in data set [1] was 30 to 60%. The compound further had a solubility in data set [2] of 10.6 µg/mL (≈ 29.9 µM).

`Cc1cc(C)n2cnc(C(=O)NC(C)C3CCCCC3)c2n1` (stereo not shown) [III-10]: the “Percent Gcase Activation, 0.1 μM Test Compound” value in data set [1] (test compound at 0.1 μM) is “** (Gcase activation in the range of 10% up to 20%)”. For the same compound, the “Percent Gcase Activation, 1 μM Test Compound” value in data set [1] is given as “+++ (Gcase activation greater than 60%)”. Further, the “Compound Solubility in Water” value in data set [2] came out at 23.0 µg/mL.
